Data on 18 molecules can be found in BindingDB's records for doi:10.1016/j.bmcl.2011.11.036 (Pfizer, 2011).

Broadly, the IC50 is the midpoint of a concentration-inhibition curve.

This assay is described as follows: Inhibition of mouse Sky kinase assessed as inhibition of src substrate phosphorylation by ELISA. Background: An ELISA detects its analyte on a solid surface through an enzyme-linked reagent.
As to `O=C(c1cc2cc(Cl)ccc2[nH]1)N1C[C@]2(CCN(C3CCNC3)C2)c2ccccc21` (stereo partly drawn), the IC50 was determined as 495 nM.

Consider `COc1ccc2cc(C(=O)N3C[C@]4(CCN(C5CCNC5)C4)c4ccccc43)[nH]c2c1` (stereo partly drawn), for which the IC50 was 843 nM.

As to `N#Cc1ccc2cc(C(=O)N3C[C@]4(CCN(C5CCNC5)C4)c4ccccc43)[nH]c2c1` (stereo partly drawn), the IC50 turned out to be 1130 nM.

On to `CCN1CCCC(N2CC[C@]3(CN(C(=O)c4cc5cc(F)ccc5[nH]4)c4ccccc43)C2)C1` (stereo partly drawn), for which the IC50 was 4930 nM.

Take `C[C@@H]1CCC(N2CC[C@]3(CN(C(=O)c4cc5ccccc5[nH]4)c4ccccc43)C2)CN1` (stereo partly drawn): the IC50 amounted to 246 nM.

For `O=C(c1cc2ccc(F)cc2[nH]1)N1C[C@]2(CCN(C3CCNC3)C2)c2ccccc21` (stereo partly drawn), the IC50 came to 598 nM.

Turning to `NC(=O)c1ccc2cc(C(=O)N3C[C@]4(CCN(C5CCNC5)C4)c4ccccc43)[nH]c2c1` (stereo partly drawn), the IC50 worked out at 2200 nM.

For the molecule `COc1ccc2[nH]c(C(=O)N3C[C@]4(CCN(C5CCNC5)C4)c4ccccc43)cc2c1` (stereo partly drawn), the IC50 came out at 501 nM.

Regarding `C[C@@H]1CCC(N2CC[C@]3(CN(C(=O)c4cc5ccc(F)cc5[nH]4)c4ccccc43)C2)CN1` (stereo partly drawn), the IC50 was 189 nM.

With `O=C(c1cc2cc(Cl)ccc2[nH]1)N1C[C@]2(CCN(C3CCNCC3)C2)c2ccccc21`, the IC50 is 8660 nM.

As for `Cc1ccc2[nH]c(C(=O)N3C[C@]4(CCN(C5CCNC5)C4)c4ccccc43)cc2c1` (stereo partly drawn), the IC50 came out at 811 nM.

For `O=C(c1cc2cc(F)ccc2[nH]1)N1C[C@]2(CCN(C3CNC3)C2)c2ccccc21`, the IC50 was determined as 1810 nM.

As to `O=C(c1cc2cc(F)ccc2[nH]1)N1C[C@]2(CCN(C3CCCCC3)C2)c2ccccc21`, the half-maximal inhibitory concentration (IC50) came to 27900 nM.

On to `O=C(c1cc2cc(F)ccc2[nH]1)N1C[C@]2(CCN(CC3CCCNC3)C2)c2ccccc21` (stereo partly drawn), for which the IC50 came to 4410 nM.

`Cc1ccc(N2CC[C@@]3(C2)CN(C(=O)c2cc4cc(F)ccc4[nH]2)c2ccccc23)cn1`: the IC50 was found to be 37800 nM.

For the molecule `O=C(c1cc2cc(Cl)ccc2[nH]1)N1C[C@]2(CCN(C3CCCNC3)C2)c2ccccc21` (stereo partly drawn), the IC50 was found to be 1040 nM.

For `O=C(c1cc2c(Cl)cccc2[nH]1)N1C[C@]2(CCN(C3CCNC3)C2)c2ccccc21` (stereo partly drawn), the IC50 turned out to be 560 nM.

For the molecule `CN1CCC(N2CC[C@]3(CN(C(=O)c4cc5cc(F)ccc5[nH]4)c4ccccc43)C2)CC1`, the IC50 came to 2880 nM.
